Assay results taken from ChEMBL document CHEMBL4376819, “The Rise of Molecules Able To Regenerate the Central Nervous System” (J Med Chem, 2020).

Columns and labels:
[1] = Half life in mouse plasma at 10 umol/L measured up to 4 hrs by mass spectrometry; type: ADME, cell-free
[2] = Induction of neurite growth in rat hippocampal neurons incubated for 48 hrs by high content analysis; type: functional, cell-based; settings: Hippocampal neurone
[3] = Induction of CSPG-treated C57BL/6J mouse DRG neuron growth at 25 uM incubated for 24 hrs by Alexa Fluor 488 staining based assay relative to control; type: functional
[4] = Induction of CSPG-treated human induced sensory neuron growth at 2 uM for 24 hrs by immunostaining method relative to control; type: functional
[5] = Induction of rat DRG neuron growth assessed as increase in total neurite length at 1 uM incubated for 24 hrs by […] staining based assay relative to control; type: functional
Rattus norvegicus = test: Induction of optic nerve axon regeneration in Sprague-Dawley rat model of optic nerve crush injury assessed as increase in average length of the longest regenerating axons at 100 uM administered intravitreally on day 3,7 and 10 post injury and measured on day 13 post injury by Alexa Fluor 488/CTB-488 staining based confocal microscopic analysis relative to control; type: functional

## COc1ccc(O)c(C(=O)c2ccc(C(=O)O[C@@H]3CCCNC[C@H]3NC(=O)c3ccncc3)cc2)c1F
[1]
  half-life at 10 µM: < 1 min

## O=S(=O)(c1cccc2c(I)cccc12)N1CCCNCC1
[2]
  EC50: 74 nM

## COc1ccc([C@@H]2Sc3ccccc3N(CCN(C)C)C(=O)[C@@H]2OC(C)=O)cc1 [DILTIAZEM]
[3]
  fold change (FC): 2
[4]
  fold change (FC): 1.5

## Cc1ccc(-c2nc(NCCOCCOCCN)nc(N3CCN(c4ccccn4)CC3)n2)cc1
[5]
  Activity: 50%
Rattus norvegicus
  Activity: 56%
